Test results: paper PMC9204419, “A Toolbox for the Generation of Chemical Probes for Baculovirus IAP Repeat Containing Proteins” (Frontiers in Cell and Developmental Biology, 2022)
Read-outs that look alike come from different tables or passages of the source. Values belong to the molecule of their own block, whether it stands above or below them. Starred links: 1 amine or outer side, 2 acyl side, 3 side chain; linkers in the order of their positions; H or OH if unused. Positions of bridges follow the written chain, without caps; N, C: chain ends. Non-standard residues stand in square brackets, D forms with d. Residues, ends and D or L forms follow the SMILES beside them. Chains are numbered I, II in the order given. Hexamethylenediamine = C(CCCN[*:2])CCN[*:1]; Dip = N[C@H](C(=O)O)C(c1ccccc1)c1ccccc1; Chg = N[C@H](C(=O)O)C1CCCCC1; NMeA = CN[C@@H](C)C(=O)O

What was measured:
BIRC2 BIR2 = BIRC2 BIR2 (Homo sapiens, UniProt Q13490); assay: NanoBRET cellular target engagement, single domain BIRC2 BIR2
Sequence of BIRC2 BIR2 (Q13490 165-267): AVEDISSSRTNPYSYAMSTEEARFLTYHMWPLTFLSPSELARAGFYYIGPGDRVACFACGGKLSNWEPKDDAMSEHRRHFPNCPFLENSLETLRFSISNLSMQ
Description: (§1) In brief: Constructs contained the cDNA of full-length or single domains cloned in frame with an N-terminal NanoLuc-fusion as specified in Supplementary Table S2. Plasmids were transfected into HEK293T cells using FuGENE HD (Promega, E2312) and proteins were allowed to express for 20 h. […] The corresponding transfected cells were added and reseeded at a density of 2.5^5 cells/mL after trypsinization and resuspending in Opti-MEM without phenol red (Life Technologies). […] Competitive displacement data were then graphed using GraphPad Prism 9.3 software using a normalized 3-parameter curve fit with the following equation: Y = 100/(1 + 10^(X-LogIC50)).

BIRC2-BIR3 domain [1] = molecular target: T1, BIRC2-BIR3 domain (Homo sapiens, UniProt Q13490); parameters: BIRC2-BIR3 domain (260–352) was expressed; His6 (N, cleaved yes); GST (N, cleaved yes); made in house; host or cells: E. coli; conditions: read-out: Literature FP Assay K I Values, cited from earlier work
T1 sequence (Q13490 260-352): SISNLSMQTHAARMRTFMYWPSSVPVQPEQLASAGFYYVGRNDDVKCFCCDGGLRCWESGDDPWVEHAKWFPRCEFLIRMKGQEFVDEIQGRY

BIRC4 = BIRC4 (Homo sapiens, UniProt P98170); assay: NanoBRET cellular target engagement, full-length BIRC4
Sequence of BIRC4 (P98170 whole entry, the tested form may be a part): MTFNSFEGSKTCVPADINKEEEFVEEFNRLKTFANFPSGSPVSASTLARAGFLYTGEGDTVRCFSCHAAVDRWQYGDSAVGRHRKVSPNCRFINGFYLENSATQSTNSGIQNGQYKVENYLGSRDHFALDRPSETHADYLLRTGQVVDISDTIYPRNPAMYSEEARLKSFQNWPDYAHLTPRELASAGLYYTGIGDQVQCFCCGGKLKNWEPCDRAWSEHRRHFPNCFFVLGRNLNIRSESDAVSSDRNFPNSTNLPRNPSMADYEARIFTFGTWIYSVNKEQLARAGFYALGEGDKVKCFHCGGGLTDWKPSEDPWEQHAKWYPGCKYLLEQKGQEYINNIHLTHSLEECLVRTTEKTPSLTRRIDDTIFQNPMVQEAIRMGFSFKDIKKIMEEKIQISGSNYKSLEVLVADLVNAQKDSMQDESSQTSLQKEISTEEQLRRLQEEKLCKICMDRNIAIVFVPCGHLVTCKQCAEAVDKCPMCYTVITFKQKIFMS

BIRC2-BIR3 domain [2] = molecular target: T1, BIRC2-BIR3 domain; assay: Fluorescence polarization (FP) competition assay with fluorescent SMAC probe; format: binding; parameters: BIRC2-BIR3 domain (260–352) was expressed; His6 (N, cleaved yes); GST (N, cleaved yes); made in house; host or cells: E. coli; conditions: read-out: FP Assay K I Values
Description: Resulting data was plotted using GraphPad Prism 9.3 software and analyzed using a nonlinear fit to calculate the probe IC50. […] Compounds were titrated from 20 μM to 20 nM using an ECHO 550 acoustic dispenser (Labcyte) incubated for 1 h at room temperature and subsequent read out.
The assay is based on the displacement of a fluorescent SMAC mimetic from the binding site.

BIRC2-BIR3 domain [3] = molecular target: T1, BIRC2-BIR3 domain; assay: Isothermal titration calorimetry (ITC); format: binding; parameters: BIRC2-BIR3 domain (260–352) was expressed; His6 (N, cleaved yes); GST (N, cleaved yes); made in house; host or cells: E. coli; conditions: 25°C; for Kd: duplicates, mean ± SD, read-out: K D Measured in ITC
Description: For this protocol, the chamber was pre-equilibrated with the test compound, and the BIRC2-BIR3 domain was titrated in while continuously measuring the rate of exothermic heat evolution. The heat of binding was integrated, corrected, and fitted to an independent single-binding site model based on the manufacturer’s instructions, from which thermodynamic parameters (ΔH and TΔS), equilibrium association and dissociation constants (K A and K D, respectively), and stoichiometry (n) were calculated.

BIRC2-BIR3 domain [4] = molecular target: T1, BIRC2-BIR3 domain; assay: Differential scanning fluorimetry (DSF); conditions: for ΔTm [°C] (Supplementary Table S1): technical replicate
Description: Purified proteins were buffered in DSF buffer (25 mM HEPES pH 7.5, 500 mM NaCl) and were assayed in a 384-well plate (Thermo, #BC3384) with a final protein concentration of 20 μM in 10 μL final assay volume. Inhibitors were added in excess to a final concentration of 40 μM, using an ECHO 550 acoustic dispenser (Labcyte). As a fluorescent probe, SYPRO-Orange (Molecular Probes) was used at 5x final concentration. […] Data was analyzed using Boltzmann-equation in the Protein Thermal Shift software (Applied Biosystems). Samples were measured in technical triplicates.
The assay was run in the presence of DMSO to exclude DMSO influences towards melting temperature differences when testing small molecules (Figures 2C,D).

BIRC2 = BIRC2 (Homo sapiens, UniProt Q13490); assay: NanoBRET cellular target engagement, full-length BIRC2
Sequence of BIRC2 (Q13490 whole entry, the tested form may be a part): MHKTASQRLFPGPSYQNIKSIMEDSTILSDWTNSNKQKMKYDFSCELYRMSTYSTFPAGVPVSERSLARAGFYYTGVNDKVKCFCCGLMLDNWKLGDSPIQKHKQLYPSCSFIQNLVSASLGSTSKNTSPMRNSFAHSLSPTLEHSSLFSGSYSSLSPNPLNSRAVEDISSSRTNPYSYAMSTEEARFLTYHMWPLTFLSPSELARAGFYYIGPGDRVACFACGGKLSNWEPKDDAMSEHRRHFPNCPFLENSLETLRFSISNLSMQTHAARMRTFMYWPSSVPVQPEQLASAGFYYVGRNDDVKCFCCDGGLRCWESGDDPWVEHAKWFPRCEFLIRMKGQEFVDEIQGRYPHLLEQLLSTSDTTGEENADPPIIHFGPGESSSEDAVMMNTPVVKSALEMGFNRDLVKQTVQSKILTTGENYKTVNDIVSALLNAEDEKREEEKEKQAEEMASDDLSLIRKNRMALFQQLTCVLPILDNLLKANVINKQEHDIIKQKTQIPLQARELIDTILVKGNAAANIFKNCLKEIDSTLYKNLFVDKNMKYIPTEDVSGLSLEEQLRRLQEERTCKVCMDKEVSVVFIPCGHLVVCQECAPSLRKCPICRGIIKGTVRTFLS
Description: as §1

BIRC1 BIR[2] = molecular target: T2, BIRC1 BIR[2] (Homo sapiens, UniProt Q13075); assay: NanoBRET cellular target engagement, single domain BIRC1 BIR[2]
T2 sequence (Q13075 139-251): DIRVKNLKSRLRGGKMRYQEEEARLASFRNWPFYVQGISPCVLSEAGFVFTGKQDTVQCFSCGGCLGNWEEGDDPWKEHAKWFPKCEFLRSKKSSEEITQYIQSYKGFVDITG
Description: as §1

BIRC3 BIR2 = BIRC3 BIR2 (Homo sapiens, UniProt Q13489); assay: NanoBRET cellular target engagement, single domain BIRC3 BIR2
Sequence of BIRC3 BIR2 (Q13489 147-253): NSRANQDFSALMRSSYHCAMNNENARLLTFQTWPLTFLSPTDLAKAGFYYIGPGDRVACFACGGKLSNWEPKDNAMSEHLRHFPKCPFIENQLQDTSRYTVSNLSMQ
Description: as §1

BIRC7 = molecular target: T3, BIRC7 (Homo sapiens, UniProt Q96CA5); assay: NanoBRET cellular target engagement, full-length BIRC7
T3 sequence (Q96CA5 1-298): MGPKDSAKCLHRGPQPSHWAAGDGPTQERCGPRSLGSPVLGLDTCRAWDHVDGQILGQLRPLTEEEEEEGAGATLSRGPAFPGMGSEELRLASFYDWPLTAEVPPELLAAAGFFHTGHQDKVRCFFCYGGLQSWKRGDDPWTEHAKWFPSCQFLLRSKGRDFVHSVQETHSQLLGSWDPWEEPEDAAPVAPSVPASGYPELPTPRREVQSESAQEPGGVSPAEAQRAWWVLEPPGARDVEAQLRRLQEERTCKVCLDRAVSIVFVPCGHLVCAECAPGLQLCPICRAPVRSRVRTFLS
Description: as §1

BIRC7 BIR = molecular target: T4, BIRC7 BIR (Homo sapiens, UniProt Q96CA5); assay: NanoBRET cellular target engagement, single domain BIRC7 BIR
T4 sequence (Q96CA5 70-176): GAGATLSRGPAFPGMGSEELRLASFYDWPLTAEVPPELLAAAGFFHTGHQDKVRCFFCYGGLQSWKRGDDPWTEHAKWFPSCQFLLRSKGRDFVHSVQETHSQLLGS
Description: as §1

BIRC3 = BIRC3 (Homo sapiens, UniProt Q13489); assay: NanoBRET cellular target engagement, full-length BIRC3
Sequence of BIRC3 (Q13489 whole entry, the tested form may be a part): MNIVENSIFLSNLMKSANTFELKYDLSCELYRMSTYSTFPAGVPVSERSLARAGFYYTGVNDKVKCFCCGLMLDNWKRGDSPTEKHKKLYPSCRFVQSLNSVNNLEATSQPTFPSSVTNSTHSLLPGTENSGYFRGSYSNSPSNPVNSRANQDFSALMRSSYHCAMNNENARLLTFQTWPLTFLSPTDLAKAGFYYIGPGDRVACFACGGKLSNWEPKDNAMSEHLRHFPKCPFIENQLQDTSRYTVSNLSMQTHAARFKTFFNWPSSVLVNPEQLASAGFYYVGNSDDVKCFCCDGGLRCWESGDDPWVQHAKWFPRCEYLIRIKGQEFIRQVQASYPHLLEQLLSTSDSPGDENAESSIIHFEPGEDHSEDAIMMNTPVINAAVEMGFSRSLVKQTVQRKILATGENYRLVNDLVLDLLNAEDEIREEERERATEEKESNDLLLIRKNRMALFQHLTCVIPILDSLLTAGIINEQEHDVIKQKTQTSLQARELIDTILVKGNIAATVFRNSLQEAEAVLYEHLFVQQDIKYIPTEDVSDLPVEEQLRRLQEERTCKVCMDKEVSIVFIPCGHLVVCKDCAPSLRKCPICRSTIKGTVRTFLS
Description: as §1

BIRC3 BIR3 = BIRC3 BIR3 (Homo sapiens, UniProt Q13489); assay: NanoBRET cellular target engagement, single domain BIRC3 BIR3
Sequence of BIRC3 BIR3 (Q13489 236-360): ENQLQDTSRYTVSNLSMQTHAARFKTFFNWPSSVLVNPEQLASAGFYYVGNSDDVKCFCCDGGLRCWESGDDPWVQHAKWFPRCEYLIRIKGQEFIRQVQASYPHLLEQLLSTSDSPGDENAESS
Description: as §1

BIRC8 BIR = molecular target: T5, BIRC8 BIR (Homo sapiens, UniProt Q96P09); assay: NanoBRET cellular target engagement, single domain BIRC8 BIR
T5 sequence (Q96P09 1-90): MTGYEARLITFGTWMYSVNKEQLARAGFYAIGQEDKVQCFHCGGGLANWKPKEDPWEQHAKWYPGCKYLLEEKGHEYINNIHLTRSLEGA
Description: as §1

BIRC8 = molecular target: T6, BIRC8 (Homo sapiens, UniProt Q96P09); assay: NanoBRET cellular target engagement, full-length BIRC8
T6 sequence (Q96P09 1-236): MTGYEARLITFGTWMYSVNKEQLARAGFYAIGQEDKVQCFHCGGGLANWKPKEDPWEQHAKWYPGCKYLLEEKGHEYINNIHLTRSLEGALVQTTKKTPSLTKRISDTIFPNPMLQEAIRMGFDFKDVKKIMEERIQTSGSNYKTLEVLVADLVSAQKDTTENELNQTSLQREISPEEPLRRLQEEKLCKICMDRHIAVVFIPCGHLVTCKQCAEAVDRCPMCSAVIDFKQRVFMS
Description: as §1

BIRC2 BIR3 = BIRC2 BIR3 (Homo sapiens, UniProt Q13490); assay: NanoBRET cellular target engagement, single domain BIRC2 BIR3
Sequence of BIRC2 BIR3 (Q13490 251-372): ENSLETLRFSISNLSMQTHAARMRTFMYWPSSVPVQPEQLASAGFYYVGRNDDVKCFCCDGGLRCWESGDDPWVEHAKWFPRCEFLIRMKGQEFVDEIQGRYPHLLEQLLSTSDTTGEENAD

[5] = molecular target: T7, BIRC2-BIR3 domain (260-352) (human, UniProt Q13490 260-352); assay: fluorescence polarisation; BIRC2-BIR3 titrated from 40 uM to 600 pM into 30 nM FAM-labelled SMAC probe; 50 mM HEPES pH 7.5, 150 mM NaCl, 5% glycerol, 1 mM TCEP, 0.05% TWEEN20; 1 h at room temperature; conditions: both partners purified
T7 construct: BIR3 domain of human BIRC2 (cIAP1), residues 260-352; The expression tag was cleaved with TEV protease; also called BIR3 domain of BIRC2; not shown: His6, N-terminal, cleaved; GST, N-terminal, cleaved
T7 sequence (Q13490 260-352): as the sequence (Q13490 260-352) above

EC50 (BIRC2 BIR2; read-out: EC50 ± SEM NanoBRET BIRC2 BIR2, single domain, HEK293T, n = 4): > 50000 nM | EC50 ± SEM NanoBRET BIRC2 BIR2 (BIRC2 BIR2; single domain, HEK293T, n = 4): did not show any binding | EC50 (BIRC4; read-out: EC50 ± SEM NanoBRET BIRC4, full-length, HEK293T, n = 4): 900 ± 100 nM | Ki (BIRC2-BIR3 domain [2]; BIRC2 BIR3 domain, Cheng-Prusoff from IC50, mean ± SD, n = 3): 8.4 ± 0.7 nM | ITC TΔS (BIRC2-BIR3 domain [3]): 6.94 ± 0.1 kcal/mol | Kd (BIRC2-BIR3 domain [3]): 24.8 ± 8.5 nM | Mean, ΔTm [°C] (Supplementary Table S1) (BIRC2-BIR3 domain [4]; mean of n=3, difference to DMSO control): 9.1 °C | ΔTm [°C] (Supplementary Table S1) (BIRC2-BIR3 domain [4]; first column): 9.1 °C | ΔTm [°C] (Supplementary Table S1) (BIRC2-BIR3 domain [4]; second column): 9.1 °C | ΔTm [°C] (Supplementary Table S1) (BIRC2-BIR3 domain [4]; third column): 9.1 °C | EC50 (BIRC2; read-out: EC50 ± SEM NanoBRET BIRC2, full-length, HEK293T, n = 4): 500 ± 100 nM | EC50 (BIRC1 BIR[2]; read-out: EC50 ± SEM NanoBRET BIRC1 BIR[2], single domain, HEK293T, n = 4): 10.9 ± 2.1 µM | EC50 (BIRC3 BIR2; read-out: EC50 ± SEM NanoBRET BIRC3 BIR2, single domain, HEK293T, n = 4): 18 ± 25.2 µM | EC50 (BIRC7; read-out: EC50 ± SEM NanoBRET BIRC7, full-length, HEK293T, n = 4): 2600 ± 800 nM | EC50 (BIRC7 BIR; read-out: EC50 ± SEM NanoBRET BIRC7 BIR, single domain, HEK293T, n = 4): 2700 ± 800 nM | EC50 (BIRC3; read-out: EC50 ± SEM NanoBRET BIRC3, full-length, HEK293T, n = 4): 800 ± 100 nM | EC50 (BIRC3 BIR3; read-out: EC50 ± SEM NanoBRET BIRC3 BIR3, single domain, HEK293T, n = 4): 1700 ± 400 nM | EC50 (BIRC8 BIR; read-out: EC50 ± SEM NanoBRET BIRC8 BIR, single domain, HEK293T, n = 4): 3000 ± 100 nM | EC50 (BIRC8; read-out: EC50 ± SEM NanoBRET BIRC8, full-length, HEK293T, n = 4): 2600 ± 200 nM | EC50 (BIRC2 BIR3; read-out: EC50 ± SEM NanoBRET BIRC2 BIR3, single domain, HEK293T, n = 4): 800 ± 100 nM
Molecule: CN[C@@H](C)C(=O)N[C@H](C(=O)N1CCC[C@H]1C(=O)N[C@H](C(=O)NCCCCCCNC(=O)[C@@H](NC(=O)[C@@H]1CCCN1C(=O)[C@@H](NC(=O)[C@H](C)NC)C1CCCCC1)C(c1ccccc1)c1ccccc1)C(c1ccccc1)c1ccccc1)C1CCCCC1 [BV-6] (I: H-[NMeA][Chg]P[Dip] / II: H-[NMeA][Chg]P[Dip]; linker I:C-II:C via Hexamethylenediamine)
Ki (BIRC2-BIR3 domain [1]; ref Varfolomeev et al. (2007)): 169 nM

EC50 (BIRC2 BIR2): 171 ± 151 nM | EC50 (BIRC4): 79.6 ± 37.5 nM | Ki (BIRC2-BIR3 domain [2]): 2.3 ± 0.3 nM | Kd (BIRC2-BIR3 domain [3]): 41.1 ± 2.9 nM | melting temperature of BIRC2 BIR3 domain with compound (BIRC2-BIR3 domain [4]; native domain ∼74°C): 92 °C | ΔTm at 40 µM (BIRC2-BIR3 domain [4]; read-out: DSF Assay ΔTm): 18 °C | ΔTm [°C] (Supplementary Table S1) (BIRC2-BIR3 domain [4]; first column): 18.2 °C | ΔTm [°C] (Supplementary Table S1) (BIRC2-BIR3 domain [4]; third column): 17.9 °C | EC50 (BIRC2): 192 ± 99.3 nM | EC50 (BIRC1 BIR[2]): 0.776 ± 0.2 µM | EC50 (BIRC3 BIR2): 0.0285 ± 0.0032 µM | EC50 (BIRC7): 8 ± 0.3 nM | EC50 (BIRC7 BIR): 16.1 ± 6.3 nM | EC50 (BIRC3): 81.1 ± 14.8 nM | EC50 (BIRC3 BIR3): 4.1 ± 0.1 nM | EC50 (BIRC8 BIR): 85.5 ± 11.1 nM | EC50 (BIRC8): 76.3 ± 0.1 nM | EC50 (BIRC2 BIR3): 23 ± 14.4 nM
Molecule: CN[C@@H](C)C(=O)N[C@H](C(=O)N1CCC[C@H]1C(=O)N[C@H]1c2ccccc2C[C@H]1OCC#CC#CCO[C@@H]1Cc2ccccc2[C@@H]1NC(=O)[C@@H]1CCCN1C(=O)[C@@H](NC(=O)[C@H](C)NC)C1CCCCC1)C1CCCCC1 [AZD5582]
Ki (BIRC2-BIR3 domain [1]; calculated from IC50, ref Hennessy et al. (2013)): 6.4 ± 4.3 nM

Kd [5]: 14.9 nM
B1: fluorescently labeled SMAC probe (AVPIAQKSEK-K(5-FAM)-NH2) (peptide)
peptide: AVPIAQKSEKK
modifications: 5-FAM on the C-terminal lysine (K(5-FAM)); C-terminal amide (NH2)
notes: two lysines that follow the SMAC stretch; the last one carries 5-FAM; Probably a synthetic peptide; also called fluorescent SMAC mimetic; tracer
